Drawing on patent US11883387B2, “PqsR inverse agonists” (HELMHOLTZ-ZENTRUM FÜR INFEKTIONSFORSCHUNG GMBH, priority 2018, dated 2024), this text covers solubility and IC50 for 23 compounds.

The nature of series [1]: Kinetic Turbidimetric Aqueous Solubility at room temperature for 5 min. The format is physicochemical. The following applies: PBS buffer, kinetic from dmso stock, 2% DMSO. The protocol:
Kinetic Turbidimetric Aqueous Solubility at room temperature for 5 min. Test compound was diluted in PBS buffer to give a range of concentrations (typically 0.4, 2, 4, 20, 40, 100, and 200 μM, final DMSO concentration 2%) and incubated at room temperature for 5 min. Absorbance was measured at a wavelength of 620 nm and the solubility was estimated from the concentration of test compound that produces an increase in absorbance above the vehicle control (i.e., […]). Data was analyzed by fitting a four parameter sigmoidal function to the measured and normalized absorbances and AUC calculation providing access to Log S (decadic logarithm of the solubility).

Series [2] deals with PqsR (Pseudomonas aeruginosa, UniProt Q9I4X0). Nature of the series: E. coli based β-galactosidase reporter gene assay (PqsR inverse agonistic activity). The format is cell-based. The arrangement: expressed in transfected cells; host or cells: Escherichia coli DH5α. The protocol: Inhibition of pqsR-dependent gene expression of test compounds was determined in an E. coli based β-galactosidase reporter gene assay.[19] Escherichia coli DH5α was transfected with pEAL08-2 plasmid encoding pqsR under control of promoter tac and β-galactosidase reporter gene lacZ under control of promoter pqsA. Antagonistic effects of compounds were evaluated in the presence of/in competition to 50 nM PQS. A positive control was used to ensure the reliability of individual assays. First, PQS was diluted in methanol and added to the wells of a glass coated 96-deep-well plate, and the solvent was evaporated. Then, compounds were added in 5 μL DMSO to final concentrations of 0.001-10 μM. Overnight cultures of E. coli DH5a×pEAL08-2 were diluted 1:100 in LB medium with ampicillin (50 μg/ml) and incubated at 37° C. with shaking until it reached an OD600 of 0.2. Finally, 995 μL of culture was added to each well and the p-galactosidase activity was determined by ortho-nitrophenyl-p-galactoside conversion in permeabilized cells after a 2.5 h incubation period (37° C., 180 rpm). OD600, OD420, and OD550 were measured using POLARstar Omega (BMG Labtech, Ortenberg, Germany), and the activity was expressed as ratio of the slope of β-galactosidase activity between basal control (no PQS) and solvent control. IC50 values of antagonists were determined by variation of the concentration of the test compounds.
Sequence of PqsR (Q9I4X0 whole entry): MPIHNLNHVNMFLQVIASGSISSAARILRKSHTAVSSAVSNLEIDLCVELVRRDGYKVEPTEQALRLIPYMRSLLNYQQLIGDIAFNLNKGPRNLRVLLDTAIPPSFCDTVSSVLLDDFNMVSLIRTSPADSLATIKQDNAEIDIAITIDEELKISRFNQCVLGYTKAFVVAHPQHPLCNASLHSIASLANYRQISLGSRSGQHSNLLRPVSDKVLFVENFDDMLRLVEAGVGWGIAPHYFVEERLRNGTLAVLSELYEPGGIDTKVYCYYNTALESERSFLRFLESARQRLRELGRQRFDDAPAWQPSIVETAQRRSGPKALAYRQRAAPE
Background: In a reporter assay the amount or activity of a reporter protein is the signal.

The test system of series [3] is P. aeruginosa pyocyanin production. Nature of the series: Pyocyanin assay. It counts as cell-based, P. aeruginosa PA14. The following applies: Pseudomonas aeruginosa, PA14, 16 h, read-out: IC50-value towards pyocyanin production, PA14 in PPGAS medium, 16 h. The protocol: Inhibition of P. aeruginosa pyocyanin production by compounds was determined photometrically as described before.[20] In short, an overnight culture of PA14 in PPGAS medium was washed, diluted in medium to a start OD600 of 0.02, and incubated for 16 h (37° C., 200 rpm, relative humidity 75%) in the presence of test compounds. Then, cultures were extracted with chloroform and re-extracted with 0.2 M HCl. Protonated red colored pyocyanin was determined by measuring OD520 and normalizing to OD600.

One may read the solubility as the dissolved amount per volume that the medium holds. `FC(F)(F)c1cc(NCc2cn(-c3ccc(Oc4cccnc4)c(Cl)c3)nn2)ccn1` [Compound 031, N-((1-(3-Chloro-4-(pyridin-3-yloxy)phenyl)-1H-1,2,3-triazol-4-yl)methyl)-2-(trifluoromethyl)pyridin-4-amine]: the solubility at 5 min in series [1] was > 25 µM.

As usually defined, the IC50 is the midpoint of a concentration-inhibition curve. With `FC(F)(F)c1cc(NCc2cn(-c3ccc(Oc4cccnc4)cc3)nn2)ccn1` [Compound 033, N-((1-(4-(Pyridin-3-yloxy)phenyl)-1H-1,2,3-triazol-4-yl)methyl)-2-(trifluoromethyl)pyridin-4-amine], in series [1], the solubility at 5 min is > 25 µM. In addition, in series [2], the half-inhibitory concentration (IC50) is ≤ 0.05 µM. As to `CC(C)Oc1ccc(-n2cc(CNc3ccnc(C(F)(F)F)c3)nn2)cc1` [Compound 035, N-((1-(4-Isopropoxyphenyl)-1H-1,2,3-triazol-4-yl)methyl)-2-(trifluoromethyl)pyridin-4-amine], the solubility at 5 min in series [1] was ≥ 100 µM. Also, the IC50 in series [2] was ≤ 0.05 µM. In the case of `CSc1ccc(-n2cc(CNc3ccnc(C(F)(F)F)c3)nn2)cc1Cl` [Compound 038, N-((1-(3-Chloro-4-(methylthio)phenyl)-1H-1,2,3-triazol-4-yl)methyl)-2-(trifluoromethyl)pyridin-4-amine], the solubility at 5 min in series [1] was > 25 µM. The IC50 in series [2] is ≤ 0.05 µM. Taken in the same sequence, the figures for `FC(F)(F)c1cc(NCc2cn(-c3ccc(-n4ccc5ccncc54)cc3)nn2)ccn1` [Compound 043, N-((1-(4-(1H-pyrrolo[2,3-c]pyridin-1-yl)phenyl)-1H-1,2,3-triazol-4-yl)methyl)-2-(trifluoromethyl)pyridin-4-amine] were > 25 µM and ≤ 0.05 µM. As for `FC(F)(F)c1cc(NCc2cn(-c3ccc(-n4ccc5cccnc54)cc3)nn2)ccn1` [Compound 044, N-((1-(4-(1H-pyrrolo[2,3-b]pyridin-1-yl)phenyl)-1H-1,2,3-triazol-4-yl)methyl)-2-(trifluoromethyl)pyridin-4-amine], the solubility at 5 min in series [1] is > 10 µM. The IC50 in series [2] is ≤ 0.05 µM. As to `FC(F)(F)Oc1ccc(-n2cc(CSc3ccnc(C(F)(F)F)c3)nn2)cc1Cl` [Compound 063, 4-(((1-(3-chloro-4-(trifluoromethoxy)phenyl)-1H-1,2,3-triazol-4-yl)methyl)thio)-2-(trifluoromethyl)pyridine], the figures for the IC50 in series [3] and in series [2] were 1 to 5 µM and 0.051 to 0.25 µM, respectively.

Take `Nc1cc(SCc2cn(-c3ccc(Oc4ccccc4)cc3)nn2)nc(C(F)(F)F)n1` [Compound 065, 6-(((1-(4-phenoxyphenyl)-1H-1,2,3-triazol-4-yl)methyl)thio)-2-(trifluoromethyl)pyrimidin-4-amine]: the half-inhibitory concentration (IC50) in series [3] is ≤ 0.25 µM; in series [2] it was ≤ 0.05 µM.

For `COc1ccc(-c2ncc(CNc3cc(N)nc(C(F)(F)F)n3)s2)cc1Cl` [Compound 070, N^4-((2-(3-chloro-4-methoxyphenyl)thiazol-5-yl)methyl)-2-(trifluoromethyl)-pyrimidine-4,6-diamine], the solubility at 5 min in series [1] is > 25 µM. As for `CC(C)Oc1ccc(-c2ncc(CNc3ccnc(C#N)c3)s2)cc1Cl` [Compound 091, 4-(((2-(3-Chloro-4-isopropoxyphenyl)thiazol-5-yl)methyl)amino)picolinonitrile], the half-maximal inhibitory concentration (IC50) in series [3] is ≤ 0.25 µM; in series [2], ≤ 0.05 µM. Regarding `CC(C)Oc1ccc(-c2ncc(CNc3cc(Cl)nc(C(F)(F)F)c3)s2)cc1Cl` [Compound 094, 2-Chloro-N-((2-(3-chloro-4-isopropoxyphenyl)thiazol-5-yl)methyl)-6-(trifluoromethyl)pyridin-4-amine], the IC50 in series [3] is ≤ 0.25 µM; in series [2], ≤ 0.05 µM.

Take `FC(F)(F)c1cc(SCc2ccc(-c3ccc(Cl)cc3)cn2)ccn1` [Compound 111, 4-(((5-(4-Chlorophenyl)pyridin-2-yl)methyl)thio)-2-(trifluoromethyl)pyridine]: the solubility at 5 min in series [1] is > 10 µM.

Turning to `FC(F)(F)c1cc(NCc2cn(-c3ccc(Oc4cccnc4)cc3)nn2)cc(Cl)n1` [Compound 141, 2-chloro-N-((1-(4-(pyridin-3-yloxy)phenyl)-1H-1,2,3-triazol-4-yl)methyl)-6-(trifluoromethyl)pyridin-4-amine], the figures for the 50% inhibitory concentration (IC50) in series [3] and in series [2] were ≤ 0.25 µM and ≤ 0.05 µM, respectively. On to `Fc1ncccc1Oc1ccc(-n2cc(CNc3cc(Cl)nc(C(F)(F)F)c3)nn2)cc1` [Compound 142, 2-chloro-N-((1-(4-((2-fluoropyridin-3-yl)oxy)phenyl)-1H-1,2,3-triazol-4-yl)methyl)-6-(trifluoromethyl)pyridin-4-amine], for which the figures for the IC50 in series [3] and in series [2] were ≤ 0.25 µM and ≤ 0.05 µM, respectively.

For the compound `Fc1ccccc1Oc1ccc(-n2cc(CNc3cc(Cl)nc(C(F)(F)F)c3)nn2)cc1` [Compound 143, 2-chloro-N-((1-(4-(2-fluorophenoxy)phenyl)-1H-1,2,3-triazol-4-yl)methyl)-6-(trifluoromethyl)pyridin-4-amine], the IC50 in series [3] is ≤ 0.25 µM; in series [2], ≤ 0.05 µM.

As to `FC(F)(F)c1cc(NCc2cn(-c3ccc(-n4ncc5ccncc54)cc3)nn2)ccn1` [Compound 148, N-((1-(4-(1H-pyrazolo[3,4-c]pyridin-1-yl)phenyl)-1H-1,2,3-triazol-4-yl)methyl)-2-(trifluoromethyl)pyridin-4-amine], the half-maximal inhibitory concentration (IC50) in series [3] is 0.251 to 1 µM; in series [2], ≤ 0.05 µM. As to `FC(F)(F)c1cc(NCc2cn(-c3ccc(OC4COC4)c(Cl)c3)nn2)ccn1` [Compound 152, N-((1-(3-chloro-4-(oxetan-3-yloxy)phenyl)-1H-1,2,3-triazol-4-yl)methyl)-2-(trifluoromethyl)pyridin-4-amine], the IC50 in series [3] is 1 to 5 µM; in series [2], ≤ 0.05 µM. Regarding `CC(C)Oc1ccc(-n2cc(CNc3cc(C#N)nc(C(F)(F)F)c3)nn2)cc1Cl` [Compound 156, 4-(((1-(3-chloro-4-isopropoxyphenyl)-1H-1,2,3-triazol-4-yl)methyl)amino)-6-(trifluoromethyl)picolinonitrile], the results for the half-maximal inhibitory concentration (IC50) in series [3] and in series [2] were 0.251 to 1 µM and ≤ 0.05 µM, respectively. Turning to `CC(C)Oc1ccc(-n2cc(CNc3cc(Cl)nc(Cl)c3)nn2)cc1Cl` [Compound 158, 2,6-dichloro-N-((1-(3-chloro-4-isopropoxyphenyl)-1H-1,2,3-triazol-4-yl)methyl)pyridin-4-amine], the figures for the IC50 in series [3] and in series [2] were ≤ 0.25 µM and ≤ 0.05 µM, respectively. For `CC(C)Oc1ccc(-n2cc(CNc3cc(C#N)nc(C#N)c3)nn2)cc1Cl` [Compound 159, 4-(((1-(3-chloro-4-isopropoxyphenyl)-1H-1,2,3-triazol-4-yl)methyl)amino)pyridine-2,6-dicarbonitrile], the IC50 is ≤ 0.25 µM in series [3] and ≤ 0.05 µM in series [2]. In the case of `CC(C)Oc1ccc(-c2ncc(CNc3cc(Cl)nc(Cl)c3)s2)cc1` [Compound 162, 2,6-Dichloro-N-((2-(4-isopropoxyphenyl)thiazol-5-yl)methyl)pyridin-4-amine], the figures for the IC50 in series [3] and in series [2] were ≤ 0.25 µM and ≤ 0.05 µM, respectively. Taken in the same sequence, the figures for `Clc1cc(SCc2nc3cc(Oc4ccccc4)ccc3[nH]2)ccn1` [Compound 178, 2-(((2-chloropyridin-4-yl)thio)methyl)-5-phenoxy-1H-benzo[d]imidazole] were 0.251 to 1 µM and 0.051 to 0.25 µM. `FC(F)(F)c1cc(SCc2nc3cc(Oc4ccccc4)ccc3[nH]2)cc(Cl)n1` [Compound 184, 2-(((2-chloro-6-(trifluoromethyl)pyridin-4-yl)thio)methyl)-5-phenoxy-1H-benzo[d]imidazole]: the half-inhibitory concentration (IC50) in series [3] was ≤ 0.25 µM; in series [2], ≤ 0.05 µM.
